Laboratory results taken from ChEMBL document CHEMBL1201862, “PubChem BioAssay data set” (2004).
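A five-concentration, 48-hour dose response in 96-well plates underlies each endpoint, interpolated linearly between surrounding concentrations. GI50 marks 50% less growth.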 The source made the active and inactive calls. Rule as the data show it: active = GI50 up to about 1.1 µM and inactive = higher.

What was measured:
Experiment in all cases: NCI-60 cell line screen, 48 h
NCI-H522 = tested on: NCI-H522
HOP-62 = tested on: HOP-62
HT-29 = tested on: HT-29
SNB-19 = tested on: SNB-19
K562 = tested on: K562
TK-10 = tested on: TK-10
HCT-116 = tested on: HCT-116
U-251 = tested on: U-251
A549 = tested on: A549
SK-MEL-28 = tested on: SK-MEL-28
SF-268 = tested on: SF-268
T47D = tested on: T47D
SK-MEL-5 = tested on: SK-MEL-5
SN12C = tested on: SN12C
SR = tested on: SR
A498 = tested on: A498
HOP-92 = tested on: HOP-92
COLO 205 = tested on: COLO 205
SK-OV-3 = tested on: SK-OV-3
M14 = tested on: M14
NCI/ADR-RES = tested on: NCI/ADR-RES
PC-3 = tested on: PC-3
NCI-H23 = tested on: NCI-H23
DU-145 = tested on: DU-145
786-0 = tested on: 786-0
ACHN = tested on: ACHN
OVCAR-5 = tested on: OVCAR-5
SF-539 = tested on: SF-539
Malme-3M = tested on: Malme-3M
UO-31 = tested on: UO-31
NCI-H460 = tested on: NCI-H460
RPMI-8226 = tested on: RPMI-8226
HCT-15 = tested on: HCT-15
CAKI-1 = tested on: CAKI-1
MDA-N = tested on: MDA-N
RXF 393 = tested on: RXF 393
OVCAR-4 = tested on: OVCAR-4
MOLT-4 = tested on: MOLT-4
KM12 = tested on: KM12
OVCAR-8 = tested on: OVCAR-8
SF-295 = tested on: SF-295
UACC-62 = tested on: UACC-62
SW-620 = tested on: SW-620
MDA-MB-435 = tested on: MDA-MB-435
MCF7 = tested on: MCF7
SK-MEL-2 = tested on: SK-MEL-2
OVCAR-3 = tested on: OVCAR-3
MDA-MB-231 = tested on: MDA-MB-231
NCI-H226 = tested on: NCI-H226
CCRF-CEM = tested on: CCRF-CEM
SNB-75 = tested on: SNB-75
IGROV-1 = tested on: IGROV-1
HL-60 = tested on: HL-60
HCC 2998 = tested on: HCC 2998
UACC-257 = tested on: UACC-257
LOX IMVI = tested on: LOX IMVI
Hs-578T = tested on: Hs-578T
EKVX = tested on: EKVX

SMILES: COC(=O)[C@@H]1CCCN1CCN1CCC[C@H]1C(=O)OC
- GI50 (NCI-H522): > 100 µM (inactive)
- GI50 (HOP-62): > 100 µM (inactive)
- GI50 (HT-29): > 100 µM (inactive)
- GI50 (SNB-19): > 100 µM (inactive)
- GI50 (K562): > 100 µM (inactive)
- GI50 (TK-10): > 100 µM (inactive)
- GI50 (HCT-116): > 100 µM (inactive)
- GI50 (U-251): > 100 µM (inactive)
- GI50 (A549): > 100 µM (inactive)
- GI50 (SK-MEL-28): > 100 µM (inactive)
- GI50 (SF-268): > 100 µM (inactive)
- GI50 (T47D): > 100 µM (inactive)
- GI50 (SK-MEL-5): > 100 µM (inactive)
- GI50 (SN12C): > 100 µM (inactive)
- GI50 (SR): 31.8 µM (inactive)
- GI50 (A498): > 100 µM (inactive)
- GI50 (HOP-92): > 100 µM (inactive)
- GI50 (COLO 205): > 100 µM (inactive)
- GI50 (SK-OV-3): > 100 µM (inactive)
- GI50 (M14): > 100 µM (inactive)
- GI50 (NCI/ADR-RES): > 100 µM (inactive)
- GI50 (PC-3): > 100 µM (inactive)
- GI50 (NCI-H23): > 100 µM (inactive)
- GI50 (DU-145): > 100 µM (inactive)
- GI50 (786-0): > 100 µM (inactive)
- GI50 (ACHN): > 100 µM (inactive)
- GI50 (OVCAR-5): > 100 µM (inactive)
- GI50 (SF-539): > 100 µM (inactive)
- GI50 (Malme-3M): > 100 µM (inactive)
- GI50 (UO-31): > 100 µM (inactive)
- GI50 (NCI-H460): > 100 µM (inactive)
- GI50 (RPMI-8226): > 100 µM (inactive)
- GI50 (HCT-15): > 100 µM
- GI50 (CAKI-1): > 100 µM (inactive)
- GI50 (MDA-N): > 100 µM (inactive)
- GI50 (RXF 393): > 100 µM (inactive)
- GI50 (OVCAR-4): > 100 µM (inactive)
- GI50 (MOLT-4): > 100 µM (inactive)
- GI50 (KM12): > 100 µM (inactive)
- GI50 (OVCAR-8): > 100 µM (inactive)
- GI50 (SF-295): > 100 µM (inactive)
- GI50 (UACC-62): > 100 µM (inactive)
- GI50 (SW-620): > 100 µM (inactive)
- GI50 (MDA-MB-435): > 100 µM (inactive)
- GI50 (MCF7): > 100 µM (inactive)
- GI50 (SK-MEL-2): > 100 µM (inactive)
- GI50 (OVCAR-3): > 100 µM (inactive)
- GI50 (MDA-MB-231): > 100 µM (inactive)

SMILES: O=C1C2CCCC2N1Cc1ccccc1 (stereo not given)
- GI50 (NCI-H522): > 100 µM (inactive)
- GI50 (HOP-62): > 100 µM (inactive)
- GI50 (HT-29): > 100 µM (inactive)
- GI50 (K562): > 100 µM (inactive)
- GI50 (TK-10): > 100 µM (inactive)
- GI50 (HCT-116): > 100 µM (inactive)
- GI50 (NCI-H226): > 100 µM (inactive)
- GI50 (CCRF-CEM): > 100 µM (inactive)
- GI50 (SF-268): > 100 µM (inactive)
- GI50 (T47D): > 100 µM (inactive)
- GI50 (SNB-75): 49.5 µM (inactive)
- GI50 (SK-MEL-5): > 100 µM (inactive)
- GI50 (SN12C): > 100 µM (inactive)
- GI50 (A498): > 100 µM (inactive)
- GI50 (HOP-92): > 100 µM (inactive)
- GI50 (COLO 205): > 100 µM (inactive)
- GI50 (SK-OV-3): > 100 µM (inactive)
- GI50 (M14): 13.6 µM (inactive)
- GI50 (NCI/ADR-RES): > 100 µM (inactive)
- GI50 (IGROV-1): > 100 µM (inactive)
- GI50 (NCI-H23): > 100 µM (inactive)
- GI50 (HL-60): > 100 µM (inactive)
- GI50 (DU-145): > 100 µM (inactive)
- GI50 (786-0): > 100 µM (inactive)
- GI50 (ACHN): > 100 µM (inactive)
- GI50 (HCC 2998): > 100 µM (inactive)
- GI50 (OVCAR-5): > 100 µM (inactive)
- GI50 (SF-539): > 100 µM (inactive)
- GI50 (UO-31): 15.1 µM (inactive)
- GI50 (NCI-H460): > 100 µM (inactive)
- GI50 (RPMI-8226): > 100 µM (inactive)
- GI50 (HCT-15): > 100 µM
- GI50 (CAKI-1): > 100 µM (inactive)
- GI50 (MDA-N): > 100 µM (inactive)
- GI50 (RXF 393): > 100 µM (inactive)
- GI50 (UACC-257): > 100 µM (inactive)
- GI50 (OVCAR-4): 23.3 µM (inactive)
- GI50 (LOX IMVI): > 100 µM (inactive)
- GI50 (MOLT-4): > 100 µM (inactive)
- GI50 (KM12): > 100 µM (inactive)
- GI50 (OVCAR-8): > 100 µM (inactive)
- GI50 (SF-295): > 100 µM (inactive)
- GI50 (UACC-62): > 100 µM (inactive)
- GI50 (SW-620): > 100 µM (inactive)
- GI50 (MDA-MB-435): > 100 µM (inactive)
- GI50 (Hs-578T): > 100 µM (inactive)
- GI50 (MCF7): > 100 µM (inactive)
- GI50 (OVCAR-3): > 100 µM (inactive)
- GI50 (EKVX): > 100 µM (inactive)

SMILES: COc1ccc(NC(=O)/C(O)=C/C(=O)c2ccccc2)cc1
- GI50 (HOP-62): > 10 µM (inactive)
- GI50 (HT-29): > 10 µM (inactive)
- GI50 (K562): > 10 µM (inactive)
- GI50 (TK-10): > 10 µM (inactive)
- GI50 (A549): > 10 µM (inactive)
- GI50 (SK-MEL-28): > 10 µM (inactive)
- GI50 (CCRF-CEM): 2.53 µM (inactive)
- GI50 (SF-268): > 10 µM (inactive)
- GI50 (T47D): > 10 µM (inactive)
- GI50 (SNB-75): > 10 µM (inactive)
- GI50 (SK-MEL-5): > 10 µM (inactive)
- GI50 (SN12C): > 10 µM (inactive)
- GI50 (SR): 1.74 µM (inactive)
- GI50 (HOP-92): > 10 µM (inactive)
- GI50 (COLO 205): > 10 µM (inactive)
- GI50 (SK-OV-3): > 10 µM (inactive)
- GI50 (M14): > 10 µM (inactive)
- GI50 (IGROV-1): 7.38 µM (inactive)
- GI50 (PC-3): > 10 µM (inactive)
- GI50 (NCI-H23): > 10 µM (inactive)
- GI50 (HL-60): > 10 µM (inactive)
- GI50 (DU-145): > 10 µM (inactive)
- GI50 (786-0): > 10 µM (inactive)
- GI50 (HCC 2998): > 10 µM (inactive)
- GI50 (Malme-3M): > 10 µM (inactive)
- GI50 (RPMI-8226): > 10 µM (inactive)
- GI50 (HCT-15): > 10 µM
- GI50 (CAKI-1): > 10 µM (inactive)
- GI50 (MDA-N): > 10 µM (inactive)
- GI50 (RXF 393): > 10 µM (inactive)
- GI50 (UACC-257): > 10 µM (inactive)
- GI50 (OVCAR-4): > 10 µM (inactive)
- GI50 (LOX IMVI): 1.96 µM (inactive)
- GI50 (MOLT-4): 1.95 µM (inactive)
- GI50 (KM12): > 10 µM (inactive)
- GI50 (OVCAR-8): > 10 µM (inactive)
- GI50 (SF-295): > 10 µM (inactive)
- GI50 (UACC-62): > 10 µM (inactive)
- GI50 (SW-620): > 10 µM (inactive)
- GI50 (MDA-MB-435): > 10 µM (inactive)
- GI50 (MCF7): > 10 µM (inactive)
- GI50 (EKVX): > 10 µM (inactive)
- GI50 (MDA-MB-231): > 10 µM (inactive)
